Data as given in PMC6891286, “Towards the Development of an In vivo Chemical Probe for Cyclin G Associated Kinase (GAK)” (Molecules, 2019).

What was measured:
Assay in all cases: KINOMEscan
Format in all cases: binding
Details in all cases: 35 at 1 µM; read-out: % inhibition
BRSK1 = target: T1, BRSK1 (Homo sapiens, UniProt Q8TDC3)
T1 construct: purchased Eurofins DiscoverX (KINOMEscan)
Method: (§1) KinomeScan Assay on 35 was performed as previously described at EuroFins DiscoverX (Fremont, CA, USA).

AKT3 = target: T2, AKT3 (Homo sapiens, UniProt Q9Y243)
T2 construct: purchased Eurofins DiscoverX (KINOMEscan)
Method: as §1

GRK2 = target: T3, GRK2 (Homo sapiens, UniProt P25098)
T3 construct: purchased Eurofins DiscoverX (KINOMEscan)
Method: as §1

BMPR2 = target: T4, BMPR2 (Homo sapiens, UniProt Q13873)
T4 construct: purchased Eurofins DiscoverX (KINOMEscan)
Method: as §1

[1] = target: T5, ABL1(E255K)-phosphorylated (Homo sapiens, UniProt P00519, E255K)
T5 construct: purchased Eurofins DiscoverX (KINOMEscan)
T5 sequence (P00519 whole entry E255K): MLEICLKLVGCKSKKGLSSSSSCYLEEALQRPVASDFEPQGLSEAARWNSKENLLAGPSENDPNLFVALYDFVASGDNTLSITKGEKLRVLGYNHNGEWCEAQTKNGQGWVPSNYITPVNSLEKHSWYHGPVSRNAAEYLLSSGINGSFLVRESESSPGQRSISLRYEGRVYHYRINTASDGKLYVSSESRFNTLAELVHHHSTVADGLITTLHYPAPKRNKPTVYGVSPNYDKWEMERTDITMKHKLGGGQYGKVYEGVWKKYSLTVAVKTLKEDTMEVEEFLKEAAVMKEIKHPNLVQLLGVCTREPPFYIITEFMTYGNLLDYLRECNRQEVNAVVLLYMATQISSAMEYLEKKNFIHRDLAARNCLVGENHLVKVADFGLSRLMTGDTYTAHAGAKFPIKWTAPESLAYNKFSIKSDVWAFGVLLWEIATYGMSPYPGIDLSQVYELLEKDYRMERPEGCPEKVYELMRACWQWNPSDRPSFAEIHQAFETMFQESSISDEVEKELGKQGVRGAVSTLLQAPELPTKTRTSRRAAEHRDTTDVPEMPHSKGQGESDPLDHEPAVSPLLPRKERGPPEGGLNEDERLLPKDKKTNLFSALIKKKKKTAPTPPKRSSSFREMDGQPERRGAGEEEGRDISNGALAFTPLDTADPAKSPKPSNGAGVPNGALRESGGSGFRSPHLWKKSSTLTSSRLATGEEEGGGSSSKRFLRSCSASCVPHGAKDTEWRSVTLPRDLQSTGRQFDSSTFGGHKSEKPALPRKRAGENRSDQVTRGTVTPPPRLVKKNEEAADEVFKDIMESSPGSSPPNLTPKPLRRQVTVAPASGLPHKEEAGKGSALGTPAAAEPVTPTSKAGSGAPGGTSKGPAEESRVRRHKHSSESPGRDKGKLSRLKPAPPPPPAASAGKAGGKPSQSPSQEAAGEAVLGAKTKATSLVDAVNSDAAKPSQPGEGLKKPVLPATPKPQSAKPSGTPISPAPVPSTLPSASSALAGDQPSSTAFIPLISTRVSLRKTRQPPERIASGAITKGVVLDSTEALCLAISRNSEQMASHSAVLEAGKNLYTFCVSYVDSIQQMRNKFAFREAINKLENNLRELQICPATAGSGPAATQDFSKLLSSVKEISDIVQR
Method: as §1

NEK1 = target: T6, NEK1 (Homo sapiens, UniProt Q96PY6)
T6 construct: purchased Eurofins DiscoverX (KINOMEscan)
Method: as §1

FLT4 = target: T7, FLT4 (Homo sapiens, UniProt P35916)
T7 construct: purchased Eurofins DiscoverX (KINOMEscan)
Method: as §1

PIK3CB = target: T8, PIK3CB (Homo sapiens, UniProt P42338)
T8 construct: purchased Eurofins DiscoverX (KINOMEscan)
Method: as §1

[2] = target: T9, EGFR(L747-S752del, P753S) (Homo sapiens, UniProt P00533, DEL747-752/P753S)
T9 construct: purchased Eurofins DiscoverX (KINOMEscan)
Method: as §1

PHKG1 = target: T10, PHKG1 (Homo sapiens, UniProt Q16816)
T10 construct: purchased Eurofins DiscoverX (KINOMEscan)
Method: as §1

LKB1 = target: T11, LKB1 (Homo sapiens, UniProt Q15831)
T11 construct: purchased Eurofins DiscoverX (KINOMEscan)
Method: as §1

ERK3 = target: T12, ERK3 (Homo sapiens, UniProt Q16659)
T12 construct: purchased Eurofins DiscoverX (KINOMEscan)
T12 sequence (Q16659 whole entry): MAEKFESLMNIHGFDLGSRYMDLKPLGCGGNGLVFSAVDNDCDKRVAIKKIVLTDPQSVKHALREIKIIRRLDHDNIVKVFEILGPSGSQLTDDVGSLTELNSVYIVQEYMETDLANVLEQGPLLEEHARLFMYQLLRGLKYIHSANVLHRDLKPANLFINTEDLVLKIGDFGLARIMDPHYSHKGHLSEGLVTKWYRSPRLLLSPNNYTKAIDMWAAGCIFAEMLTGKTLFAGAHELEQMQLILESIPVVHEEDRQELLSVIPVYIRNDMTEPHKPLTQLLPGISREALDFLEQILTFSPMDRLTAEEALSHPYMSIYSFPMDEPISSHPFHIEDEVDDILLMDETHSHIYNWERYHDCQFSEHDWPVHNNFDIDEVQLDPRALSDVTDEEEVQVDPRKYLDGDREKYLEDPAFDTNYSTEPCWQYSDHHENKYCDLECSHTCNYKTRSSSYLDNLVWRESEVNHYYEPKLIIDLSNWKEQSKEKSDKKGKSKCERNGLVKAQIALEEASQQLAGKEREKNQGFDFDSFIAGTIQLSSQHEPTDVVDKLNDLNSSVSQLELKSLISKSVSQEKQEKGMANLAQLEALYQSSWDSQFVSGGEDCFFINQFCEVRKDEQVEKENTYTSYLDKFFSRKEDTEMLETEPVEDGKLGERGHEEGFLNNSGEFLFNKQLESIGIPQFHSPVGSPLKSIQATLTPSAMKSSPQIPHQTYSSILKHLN
Method: as §1

CDK9 = target: T13, CDK9 (Homo sapiens, UniProt P50750)
T13 construct: purchased Eurofins DiscoverX (KINOMEscan)
Method: as §1

ROCK1 = target: T14, ROCK1 (Homo sapiens, UniProt Q13464)
T14 construct: purchased Eurofins DiscoverX (KINOMEscan)
Method: as §1

CHEK2 = target: T15, CHEK2 (Homo sapiens, UniProt O96017)
T15 construct: purchased Eurofins DiscoverX (KINOMEscan)
T15 sequence (O96017 whole entry): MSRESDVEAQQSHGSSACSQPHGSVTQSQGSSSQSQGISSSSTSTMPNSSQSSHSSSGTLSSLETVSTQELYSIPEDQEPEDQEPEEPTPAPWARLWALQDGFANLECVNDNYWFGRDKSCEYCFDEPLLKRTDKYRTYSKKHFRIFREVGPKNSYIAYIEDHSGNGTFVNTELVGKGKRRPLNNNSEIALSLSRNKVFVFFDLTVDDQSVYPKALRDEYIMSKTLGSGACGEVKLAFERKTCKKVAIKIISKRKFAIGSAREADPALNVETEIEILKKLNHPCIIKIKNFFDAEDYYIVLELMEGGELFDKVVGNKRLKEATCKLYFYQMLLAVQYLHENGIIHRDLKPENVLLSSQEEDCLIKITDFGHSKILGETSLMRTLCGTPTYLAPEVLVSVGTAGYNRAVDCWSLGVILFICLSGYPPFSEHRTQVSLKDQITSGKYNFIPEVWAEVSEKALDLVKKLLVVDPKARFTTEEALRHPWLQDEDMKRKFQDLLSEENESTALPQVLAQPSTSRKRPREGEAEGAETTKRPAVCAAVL
Method: as §1

EGFR(E746-A750del) = target: T16, EGFR(E746-A750del) (Homo sapiens, UniProt P00533, DEL746-750)
T16 construct: purchased Eurofins DiscoverX (KINOMEscan)
Method: as §1

CAMK1 = target: T17, CAMK1 (Homo sapiens, UniProt Q14012)
T17 construct: purchased Eurofins DiscoverX (KINOMEscan)
Method: as §1

HIPK1 = target: T18, HIPK1 (Homo sapiens, UniProt Q86Z02)
T18 construct: purchased Eurofins DiscoverX (KINOMEscan)
Method: as §1

MAP4K4 = target: T19, MAP4K4 (Homo sapiens, UniProt O95819)
T19 construct: purchased Eurofins DiscoverX (KINOMEscan)
Method: as §1

EPHA8 = target: T20, EPHA8 (Homo sapiens, UniProt P29322)
T20 construct: purchased Eurofins DiscoverX (KINOMEscan)
Method: as §1

FER = target: T21, FER (Homo sapiens, UniProt P16591)
T21 construct: purchased Eurofins DiscoverX (KINOMEscan)
T21 sequence (P16591 whole entry): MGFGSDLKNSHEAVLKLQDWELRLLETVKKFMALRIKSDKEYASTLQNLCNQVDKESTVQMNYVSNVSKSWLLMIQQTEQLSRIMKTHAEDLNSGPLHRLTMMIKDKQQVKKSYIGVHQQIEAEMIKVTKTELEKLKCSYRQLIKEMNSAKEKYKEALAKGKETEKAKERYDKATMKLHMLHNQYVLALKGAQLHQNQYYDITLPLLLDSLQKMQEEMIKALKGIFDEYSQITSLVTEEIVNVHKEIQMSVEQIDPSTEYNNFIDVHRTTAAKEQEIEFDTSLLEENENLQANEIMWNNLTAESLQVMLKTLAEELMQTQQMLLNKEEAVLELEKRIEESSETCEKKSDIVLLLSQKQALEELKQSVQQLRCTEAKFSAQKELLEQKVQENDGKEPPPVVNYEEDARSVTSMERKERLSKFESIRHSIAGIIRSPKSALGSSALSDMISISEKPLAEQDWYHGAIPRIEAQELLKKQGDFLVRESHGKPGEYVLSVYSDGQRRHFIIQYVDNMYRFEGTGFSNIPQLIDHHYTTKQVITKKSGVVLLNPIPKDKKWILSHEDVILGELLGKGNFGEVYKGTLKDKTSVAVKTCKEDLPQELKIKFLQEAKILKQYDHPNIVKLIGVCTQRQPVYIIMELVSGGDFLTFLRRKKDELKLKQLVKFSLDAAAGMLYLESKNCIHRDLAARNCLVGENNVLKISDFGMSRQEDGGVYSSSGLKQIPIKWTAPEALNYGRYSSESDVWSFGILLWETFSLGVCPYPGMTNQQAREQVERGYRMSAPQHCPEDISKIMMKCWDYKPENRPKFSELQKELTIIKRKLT
Method: as §1

NEK6 = target: T22, NEK6 (Homo sapiens, UniProt Q9HC98)
T22 construct: purchased Eurofins DiscoverX (KINOMEscan)
T22 sequence (Q9HC98 whole entry): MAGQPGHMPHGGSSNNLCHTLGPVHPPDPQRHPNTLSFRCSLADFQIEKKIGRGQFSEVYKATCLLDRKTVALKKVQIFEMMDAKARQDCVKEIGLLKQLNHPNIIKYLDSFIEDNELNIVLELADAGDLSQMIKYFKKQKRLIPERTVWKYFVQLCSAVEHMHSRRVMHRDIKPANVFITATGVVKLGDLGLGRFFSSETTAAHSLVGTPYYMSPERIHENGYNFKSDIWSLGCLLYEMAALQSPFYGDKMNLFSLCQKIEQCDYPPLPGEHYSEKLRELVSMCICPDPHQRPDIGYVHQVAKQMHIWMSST
Method: as §1

PDGFRB = target: T23, PDGFRB (Homo sapiens, UniProt P09619)
T23 construct: purchased Eurofins DiscoverX (KINOMEscan)
Method: as §1

FGFR2 = target: T24, FGFR2 (Homo sapiens, UniProt P21802)
T24 construct: purchased Eurofins DiscoverX (KINOMEscan)
Method: as §1

[3] = target: T25, RSK3(Kin.Dom.1-N-terminal) (Homo sapiens, UniProt Q15349)
T25 construct: RSK3(Kin.Dom.1-N-terminal); purchased Eurofins DiscoverX (KINOMEscan)
Method: as §1

TNK1 = target: T26, TNK1 (Homo sapiens, UniProt Q13470)
T26 construct: purchased Eurofins DiscoverX (KINOMEscan)
T26 sequence (Q13470 whole entry): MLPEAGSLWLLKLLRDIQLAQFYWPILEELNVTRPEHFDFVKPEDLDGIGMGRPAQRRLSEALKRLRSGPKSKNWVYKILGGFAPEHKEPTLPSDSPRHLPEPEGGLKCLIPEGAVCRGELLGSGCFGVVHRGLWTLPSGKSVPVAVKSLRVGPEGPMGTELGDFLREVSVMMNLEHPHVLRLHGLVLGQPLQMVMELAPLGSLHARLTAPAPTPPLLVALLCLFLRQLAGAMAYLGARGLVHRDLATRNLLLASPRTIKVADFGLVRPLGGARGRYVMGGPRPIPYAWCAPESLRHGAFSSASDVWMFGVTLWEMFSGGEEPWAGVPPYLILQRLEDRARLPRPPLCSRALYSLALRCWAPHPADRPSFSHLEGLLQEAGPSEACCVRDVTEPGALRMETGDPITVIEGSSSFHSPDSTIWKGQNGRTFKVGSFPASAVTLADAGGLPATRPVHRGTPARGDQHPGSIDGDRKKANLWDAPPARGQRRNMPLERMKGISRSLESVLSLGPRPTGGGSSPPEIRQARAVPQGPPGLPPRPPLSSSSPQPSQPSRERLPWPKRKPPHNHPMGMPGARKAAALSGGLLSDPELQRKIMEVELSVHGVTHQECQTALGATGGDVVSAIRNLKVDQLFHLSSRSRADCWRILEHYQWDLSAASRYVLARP
Method: as §1

FES = target: T27, FES (Homo sapiens, UniProt P07332)
T27 construct: purchased Eurofins DiscoverX (KINOMEscan)
Method: as §1

EGFR(S752-I759del) = target: T28, EGFR(S752-I759del) (Homo sapiens, UniProt P00533, DEL752-759)
T28 construct: purchased Eurofins DiscoverX (KINOMEscan)
Method: as §1

HUNK = target: T29, HUNK (Homo sapiens, UniProt P57058)
T29 construct: purchased Eurofins DiscoverX (KINOMEscan)
Method: as §1

STK33 = target: T30, STK33 (Homo sapiens, UniProt Q9BYT3)
T30 construct: purchased Eurofins DiscoverX (KINOMEscan)
Method: as §1

ABL2 = target: T31, ABL2 (Homo sapiens, UniProt P42684)
T31 construct: purchased Eurofins DiscoverX (KINOMEscan)
Method: as §1

HCK = target: T32, HCK (Homo sapiens, UniProt P08631)
T32 construct: purchased Eurofins DiscoverX (KINOMEscan)
Method: as §1

MST4 = target: T33, MST4 (Homo sapiens, UniProt Q9P289)
T33 construct: purchased Eurofins DiscoverX (KINOMEscan)
Method: as §1

KIT(D816H) = target: T34, KIT(D816H) (Homo sapiens, UniProt P10721, D816H)
T34 construct: purchased Eurofins DiscoverX (KINOMEscan)
Method: as §1

PIKFYVE = target: T35, PIKFYVE (Homo sapiens, UniProt Q9Y2I7)
T35 construct: purchased Eurofins DiscoverX (KINOMEscan)
Method: as §1

PIK3CA(E545A) = target: T36, PIK3CA(E545A) (Homo sapiens, UniProt P42336, E545A)
T36 construct: purchased Eurofins DiscoverX (KINOMEscan)
Method: as §1

TIE2 = target: T37, TIE2 (Homo sapiens, UniProt Q02763)
T37 construct: purchased Eurofins DiscoverX (KINOMEscan)
Method: as §1

PDGFRA = target: T38, PDGFRA (Homo sapiens, UniProt P16234)
T38 construct: purchased Eurofins DiscoverX (KINOMEscan)
Method: as §1

CAMK1D = target: T39, CAMK1D (Homo sapiens, UniProt Q8IU85)
T39 construct: purchased Eurofins DiscoverX (KINOMEscan)
Method: as §1

TBK1 = target: T40, TBK1 (Homo sapiens, UniProt Q9UHD2)
T40 construct: purchased Eurofins DiscoverX (KINOMEscan)
Method: as §1

MKNK2 = target: T41, MKNK2 (Homo sapiens, UniProt Q9HBH9)
T41 construct: purchased Eurofins DiscoverX (KINOMEscan)
Method: as §1

MINK = target: T42, MINK (Homo sapiens, UniProt Q8N4C8)
T42 construct: purchased Eurofins DiscoverX (KINOMEscan)
Method: as §1

T1 sequence (Q8TDC3 whole entry): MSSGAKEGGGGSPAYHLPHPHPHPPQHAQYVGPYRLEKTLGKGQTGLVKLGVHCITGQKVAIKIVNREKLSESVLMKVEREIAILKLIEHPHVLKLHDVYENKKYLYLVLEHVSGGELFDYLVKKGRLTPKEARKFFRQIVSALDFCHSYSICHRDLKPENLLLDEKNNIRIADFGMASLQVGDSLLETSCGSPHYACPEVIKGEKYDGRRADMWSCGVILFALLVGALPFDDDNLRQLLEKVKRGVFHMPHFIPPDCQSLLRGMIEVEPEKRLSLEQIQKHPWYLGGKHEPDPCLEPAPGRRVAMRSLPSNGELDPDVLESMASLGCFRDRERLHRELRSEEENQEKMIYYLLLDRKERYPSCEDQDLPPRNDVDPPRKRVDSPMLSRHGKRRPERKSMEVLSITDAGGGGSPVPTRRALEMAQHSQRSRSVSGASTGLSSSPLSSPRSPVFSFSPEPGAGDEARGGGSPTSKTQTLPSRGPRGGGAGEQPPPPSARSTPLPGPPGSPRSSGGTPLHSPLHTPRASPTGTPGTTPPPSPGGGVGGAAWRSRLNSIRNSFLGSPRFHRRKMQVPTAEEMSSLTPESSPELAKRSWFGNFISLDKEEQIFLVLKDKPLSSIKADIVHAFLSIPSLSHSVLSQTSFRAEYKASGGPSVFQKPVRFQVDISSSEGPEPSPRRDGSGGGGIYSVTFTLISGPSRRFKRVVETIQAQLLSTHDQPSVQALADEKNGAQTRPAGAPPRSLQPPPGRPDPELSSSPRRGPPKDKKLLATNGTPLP

## Brc1ccc2nccc(Nc3ccc4cn[nH]c4c3)c2c1 [Compound 35, 6-Bromo-N-(1H-indazol-6-yl)quinolin-4-amine]
BRSK1
  activity at 1 µM: 100%
AKT3
  activity at 1 µM: 100%
GRK2
  activity at 1 µM: 100%
BMPR2
  activity at 1 µM: 100%
[1]
  activity at 1 µM: 44%
NEK1
  activity at 1 µM: 100%
FLT4
  activity at 1 µM: 100%
PIK3CB
  activity at 1 µM: 94%
[2]
  activity at 1 µM: 66%
PHKG1
  activity at 1 µM: 100%
LKB1
  activity at 1 µM: 100%
ERK3
  activity at 1 µM: 100%
CDK9
  activity at 1 µM: 75%
ROCK1
  activity at 1 µM: 71%
CHEK2
  activity at 1 µM: 65%
EGFR(E746-A750del)
  activity at 1 µM: 79%
CAMK1
  activity at 1 µM: 100%
HIPK1
  activity at 1 µM: 53%
MAP4K4
  activity at 1 µM: 100%
EPHA8
  activity at 1 µM: 100%
FER
  activity at 1 µM: 96%
NEK6
  activity at 1 µM: 100%
PDGFRB
  activity at 1 µM: 100%
FGFR2
  activity at 1 µM: 100%
[3]
  activity at 1 µM: 100%
TNK1
  activity at 1 µM: 69%
FES
  activity at 1 µM: 100%
EGFR(S752-I759del)
  activity at 1 µM: 89%
HUNK
  activity at 1 µM: 100%
STK33
  activity at 1 µM: 100%
ABL2
  activity at 1 µM: 88%
HCK
  activity at 1 µM: 100%
MST4
  activity at 1 µM: 100%
KIT(D816H)
  activity at 1 µM: 100%
PIKFYVE
  activity at 1 µM: 100%
PIK3CA(E545A)
  activity at 1 µM: 98%
TIE2
  activity at 1 µM: 100%
PDGFRA
  activity at 1 µM: 100%
CAMK1D
  activity at 1 µM: 100%
TBK1
  activity at 1 µM: 76%
MKNK2
  activity at 1 µM: 63%
MINK
  activity at 1 µM: 100%
